The text below walks through data of ChEMBL document CHEMBL1131507, “Arylpiperazines with serotonin-3 antagonist activity: a comparative molecular field analysis” (J Med Chem, 1998).

Molecules are shown by their SMILES.

For the assay, the target named is T1, Serotonin 3 (5-HT3) receptor (Rattus norvegicus, UniProt P35563+Q9JJ16).
T1 sequence (P35563 whole entry): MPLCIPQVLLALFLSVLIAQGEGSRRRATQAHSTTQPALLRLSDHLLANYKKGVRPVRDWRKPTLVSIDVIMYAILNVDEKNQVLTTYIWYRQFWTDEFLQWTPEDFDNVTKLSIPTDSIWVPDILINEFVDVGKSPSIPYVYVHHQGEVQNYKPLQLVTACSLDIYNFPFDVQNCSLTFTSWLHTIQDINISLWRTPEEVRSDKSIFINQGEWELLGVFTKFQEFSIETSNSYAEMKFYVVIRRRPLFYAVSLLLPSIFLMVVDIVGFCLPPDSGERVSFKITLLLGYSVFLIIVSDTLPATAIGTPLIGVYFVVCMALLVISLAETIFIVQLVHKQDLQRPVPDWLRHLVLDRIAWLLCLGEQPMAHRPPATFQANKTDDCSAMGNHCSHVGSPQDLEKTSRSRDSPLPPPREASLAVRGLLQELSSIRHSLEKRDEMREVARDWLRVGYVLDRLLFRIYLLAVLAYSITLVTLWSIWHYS
T1 sequence (Q9JJ16 whole entry): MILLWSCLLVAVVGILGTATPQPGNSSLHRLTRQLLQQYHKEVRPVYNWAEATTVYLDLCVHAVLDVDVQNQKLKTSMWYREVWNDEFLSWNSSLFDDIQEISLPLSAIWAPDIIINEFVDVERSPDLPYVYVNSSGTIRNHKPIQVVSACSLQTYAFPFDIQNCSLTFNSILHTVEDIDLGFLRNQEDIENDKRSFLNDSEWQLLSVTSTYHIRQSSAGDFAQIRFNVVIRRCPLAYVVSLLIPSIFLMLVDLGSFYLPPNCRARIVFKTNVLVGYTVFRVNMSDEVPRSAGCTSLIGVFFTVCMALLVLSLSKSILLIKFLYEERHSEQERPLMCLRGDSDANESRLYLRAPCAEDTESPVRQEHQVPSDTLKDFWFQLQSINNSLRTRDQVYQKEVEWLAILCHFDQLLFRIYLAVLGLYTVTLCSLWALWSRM
As to the kind of experiment: Rat 5-hydroxytryptamine 3 receptor (5-HT3) antagonist. The format is functional.

Regarding `CCN1CCN(c2nc3ccccc3c3c2cc(OC)c2ccccc23)CC1`, the affinity, expressed as Ki, was 224 nM. The figure for `COc1cc2c(SCCN(C)C)nc3ccccc3c2c2ccccc12` is 10000 nM; for `CN1CCN(c2nc3ccccc3c3c2CCCC3)CC1` it is 0.0977 nM; for `c1ccc2c(c1)ccc1c(N3CCNCC3)nc3ccccc3c12` it is 132 nM.

`CN1CCN(c2nc3ccccc3c3c2CSCC3)CC1`: the Ki is 0.398 nM. The figure for `CCc1c(C)c(N2CCN(C)CC2)nc2ccccc12` is 0.537 nM; for `CN(C)CCSc1nc2ccccc2c2c1ccc1ccccc12` it is 10000 nM. To `CN(C)CCSc1nc2ccccc2c2c1COc1ccccc1-2` belongs 10000 nM; to `CN1CCN(c2nc3ccccc3c3c2CN(C)CC3)CC1`, 3.16 nM. To `CN1CCN(c2nc3ccccc3c3c2CCC3)CC1` belongs 0.0708 nM. The molecule `CN(C)CCSc1nc2ccccc2c2c1CCc1ccccc1-2` gave an inhibition constant (Ki) of 10000 nM. In turn, `c1ccc2c3c(c(N4CCNCC4)nc2c1)CCCC3` had a Ki of 0.1 nM.
